For 43 molecules, TGI results are on record in PubChem BioAssay (NCI).

What all share (experiment): NCI anticancer screen, dose series, 48 h
Experiment [1] has as its system HOP-62 NSCLC.
Experiment [2] deals with SK-MEL-2 melanoma.
Experiment [3] has as its system A498 renal.
Experiment [4] has as its system HCT-15 colon.
For experiment [5], the system named is COLO 205 colon.
Experiment [6] deals with MDA-MB-435.

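Each compound was tested at five concentrations against cells in 96-well plates for 48 hours. TGI: concentration producing complete growth inhibition.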

For `NC(N)=NS(=O)(=O)c1ccc(Nc2c3ccccc3nc3c(C(=O)NC(CO)(CO)CO)cccc23)cc1`, the TGI is 87.4 µM in experiment [1]; 50.8 µM in experiment [2]; 72.6 µM in experiment [3]; over 100 µM in experiment [4]; 51.7 µM in experiment [5]; over 100 µM in experiment [6].
In the case of `COC1=CC(=O)c2c(O)ccc(O)c2C1=O`, the TGI in experiment [1] worked out at 10.9 µM; in experiment [3], 31.6 µM; in experiment [4] it was 6.91 µM; in experiment [5] it was 3.07 µM; in experiment [6] it was 1.34 µM.
As for `CC(C)c1ccc2c(c1)C=C1OC(=O)[C@]3(C)CCC[C@@]2(C)C13` (some centres not stated), the TGI in experiment [1], in experiment [4], in experiment [5] and in experiment [6] was over 100 µM in each case.
Take `O=c1c2ccccc2c2c1c1c3ccccc3c(=O)c1c1c3ccccc3c(=O)c21`: the TGI in experiment [1], in experiment [2], in experiment [3], in experiment [4], in experiment [5] and in experiment [6] was over 100 µM each time.
For `CC1(C)O[C@H]2[C@@H]3N=C(c4ccccc4)O[C@@H]3C=C[C@H]2O1`, the TGI in experiment [1], in experiment [2], in experiment [3], in experiment [4], in experiment [5] and in experiment [6] was over 100 µM throughout.
Regarding `CC(C)/C(Cl)=N\OC(=O)Nc1ccc(F)c([N+](=O)[O-])c1`, the TGI in experiment [1] amounted to 32 µM; in experiment [2], 29.9 µM; in experiment [3], 41.7 µM; in experiment [4] it was 6.75 µM; in experiment [5], 4.36 µM; in experiment [6], 26 µM.
On to `O=C1N(CN2CCOCC2)CN(CN2CCOCC2)C(=O)N1Cc1ccccc1`, for which the TGI in experiment [1] is over 100 µM; in experiment [2], 32.2 µM; in experiment [3], over 100 µM; in experiment [4] it was 84.8 µM; in experiment [5], 36.1 µM; in experiment [6], 38 µM.
As for `Cn1c(=O)c2c(ncn2CCSS(=O)(=O)O)n(C)c1=O`, the TGI in experiment [1], in experiment [2], in experiment [3], in experiment [4], in experiment [5] and in experiment [6] was over 100 µM each time.
Take `COP(=O)(OC)C(O)/C=C(\Cl)c1ccc(Cl)cc1` (configuration not stated): the TGI in experiment [1], in experiment [2], in experiment [4], in experiment [5] and in experiment [6] was over 100 µM each time.
`CC(=O)N1C(C(=O)NNc2ccccc2)CSC1c1ccccc1` (configuration not stated): the TGI in experiment [1], in experiment [2], in experiment [3], in experiment [4], in experiment [5] and in experiment [6] was over 100 µM each time.
Take `COc1cc(C2c3[nH]c4ccc(F)cc4c3C[C@H]3COC(=O)N23)cc(OC)c1O` (some centres not stated): the TGI in experiment [1] is 21.6 µM; in experiment [2], 60.3 µM; in experiment [3] it was 25.6 µM; in experiment [4], 25.2 µM; in experiment [5] it was 23.7 µM.
In the case of `COc1ccccc1-c1nc2ccccc2c(=O)[nH]1`, the TGI in experiment [1], in experiment [2], in experiment [3], in experiment [4], in experiment [5] and in experiment [6] was over 100 µM throughout.
As to `O/N=C1/CCCCCC1NO` (configuration not stated), the TGI in experiment [1], in experiment [2], in experiment [4], in experiment [5] and in experiment [6] was over 100 µM each time.
Take `O=C1NC(N/N=C/c2ccccc2)=N/C1=C\c1cccs1`: the TGI in experiment [1] turned out to be 37.8 µM; in experiment [2] it was 20.6 µM; in experiment [3], 28 µM; in experiment [4], 48.5 µM; in experiment [5] it was 19.9 µM; in experiment [6] it was 34.6 µM.
For `CCn1c(-c2ccccc2)nc2c1C(=O)c1ccccc1C2=O`, the TGI in experiment [1] was over 100 µM; in experiment [4], 44.1 µM; in experiment [5], 91.1 µM; in experiment [6], 33.8 µM.
On to `COc1cc(S(=O)(=O)Nc2ccc(-c3csc(N4C(=O)C(C)SC4c4ccccc4O)n3)cc2)ccc1Cl` (configuration not stated), for which the TGI was over 100 µM in experiment [1]; 91.7 µM in experiment [2]; over 100 µM in experiment [3]; over 100 µM in experiment [4]; 57 µM in experiment [5]; over 100 µM in experiment [6].
`COc1ccc(N=Nc2c(C)c(C#N)c(=S)n(C3OC(COC(C)=O)C(OC(C)=O)C(OC(C)=O)C3OC(C)=O)c2-c2ccccc2)cc1` (configuration not stated): the TGI is 26.5 µM in experiment [1]; 22.8 µM in experiment [2]; 7.09 µM in experiment [3]; 77.2 µM in experiment [4]; 22.9 µM in experiment [5]; 27.4 µM in experiment [6].
`O=C(N/N=C/C=C/c1ccc([N+](=O)[O-])o1)c1ccc(Br)s1`: the TGI is over 100 µM in experiment [1]; 56.3 µM in experiment [2]; over 100 µM in experiment [3]; 35.7 µM in experiment [4]; 33.3 µM in experiment [5]; 83.6 µM in experiment [6].
On to `CCCN1CN(c2ccccc2)C2(CCN(CCCC(=O)c3ccc(F)cc3)CC2)C1=O`, for which the TGI in experiment [1] was determined as 8.66 µM; in experiment [2] it was 25 µM; in experiment [3], 5.67 µM; in experiment [4] it was 16.9 µM; in experiment [5] it was 0.348 µM; in experiment [6] it was 23.5 µM.
For the molecule `c1ccc2c(c1)CCN1CCc3c([nH]c4ccccc34)C21` (configuration not stated), the TGI in experiment [1] is over 100 µM; in experiment [2], 57.1 µM; in experiment [3] it was 54.5 µM; in experiment [4] it was over 100 µM; in experiment [5] it was 37.8 µM; in experiment [6] it was 75.5 µM.
As for `COc1ccc(C(=O)Cn2c(C(C)=O)nc3ccccc32)cc1`, the TGI in experiment [1] was 65.7 µM; in experiment [2], over 100 µM; in experiment [3], over 100 µM; in experiment [4] it was over 100 µM; in experiment [5] it was 52.4 µM; in experiment [6] it was over 100 µM.
`O=C(O)CSc1nnc(CCCCCCCCc2nnc(SCC(=O)O)o2)o1`: the TGI in experiment [1], in experiment [2], in experiment [3], in experiment [4], in experiment [5] and in experiment [6] was over 100 µM throughout.
For `CC(C)CCNC(=O)c1ccc(CNC(=O)/C=C/c2csc(-c3ccccc3)n2)cc1`, the TGI in experiment [1] is 37.4 µM; in experiment [2], over 100 µM; in experiment [3], over 100 µM; in experiment [4], over 100 µM; in experiment [5], over 100 µM; in experiment [6] it was over 100 µM.
With `COc1ccc(N2CCN(Cc3c(C(C)=O)[n+](=O)c4ccccc4n3[O-])CC2)cc1`, the TGI in experiment [1], in experiment [2], in experiment [3], in experiment [4], in experiment [5] and in experiment [6] was over 100 µM each time.
Take `CC1(C)CCCCCC(C)(CCCCCCCCCCCO)C1=O` (configuration not stated): the TGI came to 31.6 µM in experiment [1]; 30.4 µM in experiment [2]; 33 µM in experiment [3]; 29.7 µM in experiment [4]; 30.9 µM in experiment [5]; 30.9 µM in experiment [6].
With `CC1C2(C)OC(=N)C(C#N)(C(c3ccco3)O2)C1(C#N)C#N` (configuration not stated), the TGI was 75.9 µM in experiment [2], over 100 µM in experiment [3], 25 µM in experiment [4] and 27.7 µM in experiment [5].
For `CC(=O)O[C@H]1[C@@H](OC2CCCC2(c2ccccc2)c2ccccc2)O[N+]([O-])=C[C@@]12COCc1cc3c(cc12)OCO3` (some centres not stated), the TGI in experiment [1] was 7.67 µM; in experiment [3], 7.67 µM; in experiment [4], 67 µM; in experiment [5] it was over 58.2 µM; in experiment [6] it was 14.3 µM.
`CC(=O)O[C@H]1CC[C@H]2[C@@H]3CCC4=C(C(=O)C=CC4(C)OC(C)=O)[C@H]3CC[C@]12C` (some centres not stated): the TGI in experiment [1], in experiment [3], in experiment [4] and in experiment [6] was over 100 µM each time.
Consider `Cc1nc(N)c(N2CCN(Cc3ccccc3)CC2)c(=O)[nH]1`, for which the TGI in experiment [1], in experiment [2], in experiment [3], in experiment [4], in experiment [5] and in experiment [6] was over 100 µM throughout.
As for `CC(=O)O[C@H]1[C@H](OC(C)=O)[C@@H](CN=[N+]=[N-])OCO[C@@H]1CN=[N+]=[N-]`, the TGI in experiment [1], in experiment [2], in experiment [3], in experiment [4], in experiment [5] and in experiment [6] was over 100 µM throughout.
With `COc1cc(CNC(=O)[C@H](Cc2ccc(O)cn2)NC(C)=O)cc(OC)c1`, the TGI in experiment [1], in experiment [2], in experiment [3], in experiment [4], in experiment [5] and in experiment [6] was over 100 µM each time.
With `NC1=NN(c2ccccc2)C2(c3ccncc3C(=O)O)C1C(N)=NN2c1ccccc1` (configuration not stated), the TGI in experiment [2], in experiment [3], in experiment [4], in experiment [5] and in experiment [6] was over 100 µM throughout.
Consider `Cc1nn(-c2ccccc2)c2c1C(c1cc3ccccc3nc1Cl)NC(=S)N2` (configuration not stated), for which the TGI in experiment [1] is over 100 µM; in experiment [2], 44.8 µM; in experiment [3] it was over 100 µM; in experiment [4], over 100 µM; in experiment [5], over 100 µM; in experiment [6], over 100 µM.
Consider `O=C(Nc1nncs1)NS(=O)(=O)n1cnc2ccccc21`, for which the TGI in experiment [1], in experiment [2], in experiment [3], in experiment [4], in experiment [5] and in experiment [6] was over 100 µM each time.
For `CNC(=O)c1n[nH]n(Cc2ccccc2)c1=S`, the TGI in experiment [1], in experiment [2], in experiment [4], in experiment [5] and in experiment [6] was over 100 µM throughout.
`CC(=O)Nc1ccc(S(=O)(=O)[N-]C2C(=O)c3ccccc3C(=O)C2[n+]2ccccc2)cc1` (configuration not stated): the TGI is 35.3 µM in experiment [1]; 25.3 µM in experiment [2]; over 100 µM in experiment [4]; over 100 µM in experiment [5]; 14.9 µM in experiment [6].
As for `O=C(Nc1ccccc1)Nn1c(-c2cccs2)nc2ccc(I)cc2c1=O`, the TGI in experiment [1] was over 100 µM; in experiment [4], over 100 µM; in experiment [5], 53.4 µM; in experiment [6], 43.3 µM.
Turning to `CCN(CC)CCNc1ccc2ncn3c4c(OC)cccc4c(=O)c1c23`, the TGI came to 98 µM in experiment [1]; 33.4 µM in experiment [3]; 19.2 µM in experiment [4]; 16.5 µM in experiment [5]; 20.7 µM in experiment [6].
In the case of `C[N+](C)(C)C1(C(=O)[O-])CC1`, the TGI in experiment [1], in experiment [3], in experiment [4] and in experiment [6] was over 100 µM in each case.
`CN(C)CCCNC(=O)c1cc(NC(=O)c2cc(NC(=O)[C@H]3C[C@@H]3C(=O)Nc3cc(C(=O)Nc4cc(C(=O)NCCCN(C)C)n(C)c4)n(C)c3)cn2C)cn1C`: the TGI in experiment [1], in experiment [2], in experiment [4], in experiment [5] and in experiment [6] was over 100 µM each time.
For the molecule `Cc1cc(C)nc(NS(=O)(=O)c2ccc(NNC(=O)c3cccc4c(NNc5ccc(S(=O)(=O)Nc6nc(C)cc(C)n6)cc5)c5ccccc5nc34)cc2)n1`, the TGI in experiment [1] was 85.9 µM; in experiment [2], 57.5 µM; in experiment [4], 36.1 µM; in experiment [5], 46.3 µM; in experiment [6] it was 39.4 µM.
The like results for `CCN(CC)c1nc(N(C)C)c2ccc(OC)cc2n1` were, in that order, 76.7 µM, 36.5 µM, over 100 µM, 21.6 µM and 24.6 µM.
On to `CCCC(=O)/C=C/S/C=C/C(=O)CCC`, for which the TGI was 42.6 µM in experiment [1], over 100 µM in experiment [2], 8.22 µM in experiment [4] and 18.6 µM in experiment [6].
